Eleven compounds from PubChem BioAssay (NCI) can be followed below.

“And” between values parts separate entries of the source, which are not always exact repeats. Identical values can stand only once.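 Grown in 96-well plates, cells were treated for 48 hours with each compound at five concentrations. Insufficient inhibition: endpoint recorded as highest concentration tested. At the GI50, growth is halved. TGI is the concentration that stops growth completely.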

Test systems include UACC-257 melanoma; CAKI-1 renal; UO-31 renal; KM12 colon; MDA-MB-435; T-47D breast; MCF7 breast; HL-60(TB) leukemia; SF-268 CNS; SNB-19 CNS.
Common to all, as to experiment: DTP human tumour cell line panel, 48 h

Usually GI50 stands for the concentration giving 50% growth inhibition. As a reminder, the TGI is the concentration at which net growth stops. With `C=C(CN1CCN(c2cccc(C(F)(F)F)c2)CC1)c1ccc(C(=O)Nc2ccccc2N)cc1`, the GI50 with UACC-257 melanoma was 0.762 µM; in the experiment with CAKI-1 renal, 0.625 µM; with UO-31 renal it was 2.4 µM; with KM12 colon, 0.486 µM; in the experiment with MDA-MB-435 it was 0.156 µM; in the experiment with T-47D breast, 13.2 µM. Moreover, the GI50 with MCF7 breast was 1.25 µM; in the experiment on HL-60(TB) leukemia, 0.118 µM; in the experiment on SF-268 CNS, 1.43 µM; in the experiment with SNB-19 CNS, 4.11 µM. Besides, the TGI with UACC-257 melanoma is 17.8 µM; in the experiment on CAKI-1 renal it was over 17.6 µM; in the experiment with UO-31 renal, 12.1 µM; in the experiment with KM12 colon, 5.15 µM; in the experiment on MDA-MB-435, 0.554 µM; in the experiment with T-47D breast, over 50 µM. The TGI with MCF7 breast was over 27.5 µM; in the experiment on HL-60(TB) leukemia, 0.856 µM; with SF-268 CNS, 10.8 µM; in the experiment with SNB-19 CNS it was over 30.2 µM.

Take `O=c1cccc(C#Cc2ccccc2)o1`: the GI50 in the experiment with UACC-257 melanoma is 7.74 µM; in the experiment on CAKI-1 renal, 5.05 µM; in the experiment on UO-31 renal, 3.41 µM; in the experiment on KM12 colon it was 5.05 µM; in the experiment on MDA-MB-435, 6.89 µM; in the experiment on T-47D breast, 8.67 µM. For the same compound, the GI50 with MCF7 breast is 4.37 µM; in the experiment with HL-60(TB) leukemia, 0.71 µM; in the experiment with SF-268 CNS, 5.34 µM; in the experiment on SNB-19 CNS, 10.5 µM. For the same compound, the TGI is 22.4 µM in the experiment with UACC-257 melanoma; 15.3 µM with CAKI-1 renal; over 35.1 µM with UO-31 renal; 14.6 µM in the experiment on KM12 colon; 24.9 µM in the experiment with MDA-MB-435; 46 µM with T-47D breast. Besides, the TGI is over 100 µM in the experiment on MCF7 breast, 8.17 µM in the experiment on HL-60(TB) leukemia, over 96.7 µM with SF-268 CNS and 37.6 µM in the experiment with SNB-19 CNS.

`Cc1cc(=O)oc2cc(OC(=O)Nc3ccc(Cl)c(Cl)c3)ccc12`: the TGI was 84.2 µM in the experiment on UACC-257 melanoma; 86.4 µM in the experiment on CAKI-1 renal; 72.7 µM in the experiment with UO-31 renal; 84 µM in the experiment with KM12 colon; 41.2 µM with MDA-MB-435; 68.3 µM in the experiment on T-47D breast. Besides, the TGI is over 100 µM in the experiment on MCF7 breast, 41.9 µM in the experiment with HL-60(TB) leukemia, over 100 µM in the experiment with SF-268 CNS and 77.2 µM in the experiment on SNB-19 CNS.

`C=C1C(=O)O[C@H]2[C@H]1CC/C(COC(=O)C(=O)c1c[nH]c3ccc(OC)cc13)=C\CC[C@@]1(C)O[C@@H]21`: the GI50 in the experiment with UACC-257 melanoma was 6.53 µM; in the experiment with CAKI-1 renal, 9.23 µM; with UO-31 renal, 4.6 µM; with KM12 colon, 7.82 µM; in the experiment with MDA-MB-435 it was 5.52 µM; in the experiment on T-47D breast, 6.98 µM. Further, the GI50 with MCF7 breast was 3.69 µM; in the experiment with HL-60(TB) leukemia, 5.13 µM; in the experiment on SF-268 CNS, 6.75 µM; in the experiment on SNB-19 CNS, 8.97 µM. Besides, the TGI was found to be 12.1 µM in the experiment on UACC-257 melanoma; 23.3 µM with CAKI-1 renal; 7.91 µM in the experiment with UO-31 renal; 14.2 µM with KM12 colon; 10.8 µM in the experiment on MDA-MB-435; 12.4 µM in the experiment on T-47D breast. For the same compound, the TGI in the experiment on MCF7 breast turned out to be 16.9 µM; in the experiment on HL-60(TB) leukemia, 12.5 µM; in the experiment with SF-268 CNS, 13 µM; in the experiment with SNB-19 CNS, 19.6 µM.

Consider `O=C(Oc1ccc([N+](=O)[O-])cc1)N1CCN(Cc2cccc(Oc3ccccc3)c2)CC1`, for which the GI50 is over 76.9 µM in the experiment with UACC-257 melanoma; over 73.6 µM with CAKI-1 renal; 8.17 µM with UO-31 renal; 62.5 µM in the experiment on KM12 colon; over 100 µM in the experiment with MDA-MB-435; 17.7 µM in the experiment on T-47D breast. Further, the GI50 in the experiment on MCF7 breast was 37.1 µM; in the experiment with HL-60(TB) leukemia, 24.2 µM; in the experiment on SF-268 CNS it was over 100 µM; in the experiment on SNB-19 CNS it was over 100 µM. The TGI with UACC-257 melanoma, in the experiment with CAKI-1 renal, with UO-31 renal, with KM12 colon, in the experiment on MDA-MB-435 and in the experiment with T-47D breast was over 100 µM each time. Also, the TGI in the experiment on MCF7 breast, in the experiment on HL-60(TB) leukemia, in the experiment with SF-268 CNS and with SNB-19 CNS was over 100 µM in each case.

Take `COc1cc2c3c(n(CCN)c(=O)c2cc1OC)-c1cc2c(cc1C3=O)OCO2`: the GI50 in the experiment with UACC-257 melanoma is 3.84 µM; in the experiment with CAKI-1 renal, under 0.0145 µM; in the experiment on UO-31 renal it was 0.226 µM; in the experiment with KM12 colon, 0.235 µM; with MDA-MB-435, 1.04 µM; in the experiment on T-47D breast, 0.143 µM. In addition, the GI50 is 0.0832 µM in the experiment with MCF7 breast, 0.749 µM in the experiment with SF-268 CNS and 1.5 µM in the experiment with SNB-19 CNS. The total growth inhibition concentration (TGI) came to 11.2 µM in the experiment on UACC-257 melanoma; 0.786 µM in the experiment with CAKI-1 renal; 1.91 µM in the experiment with UO-31 renal; 1.51 µM with KM12 colon; 2.78 µM in the experiment with MDA-MB-435; 1.36 µM with T-47D breast. Moreover, the TGI is 2.98 µM with MCF7 breast, over 100 µM in the experiment with HL-60(TB) leukemia, 3.18 µM in the experiment with SF-268 CNS and over 100 µM with SNB-19 CNS.

Regarding `CN(C)CCNC(=O)c1cccc2cc3ccccc3nc12`, the GI50 with UACC-257 melanoma was 1.6 µM; in the experiment on CAKI-1 renal, 0.62 µM; in the experiment on UO-31 renal it was 1.11 µM; with KM12 colon it was 2.07 µM; in the experiment with MDA-MB-435 it was 1.86 µM; in the experiment on T-47D breast, 1.95 µM. In addition, the GI50 in the experiment with MCF7 breast is 0.612 µM; in the experiment on HL-60(TB) leukemia, 1.03 µM; in the experiment with SF-268 CNS it was 1.65 µM; with SNB-19 CNS, 2.21 µM. The TGI with UACC-257 melanoma worked out at 3.55 µM; in the experiment on CAKI-1 renal, 3.14 µM; with UO-31 renal, 4.06 µM; in the experiment with KM12 colon, 10.2 µM; in the experiment with MDA-MB-435, 6.67 µM; in the experiment with T-47D breast, 10.6 µM. Also, the TGI is 11.4 µM in the experiment on MCF7 breast, 5.3 µM in the experiment with HL-60(TB) leukemia, 8.18 µM in the experiment on SF-268 CNS and over 21.6 µM with SNB-19 CNS.

As for `Cn1ccc(=Nc2ccc(NC(=O)c3ccc(N=c4ccn(C)c5ccc([N+](=O)[O-])cc45)cc3)cc2)cc1`, the GI50 in the experiment on UACC-257 melanoma was 12.5 µM; with CAKI-1 renal, over 100 µM; with UO-31 renal, over 100 µM; in the experiment with KM12 colon it was 7.26 µM; in the experiment with MDA-MB-435, 6.53 µM; with T-47D breast, 5.27 µM. For the same compound, the GI50 was 2.36 µM in the experiment with MCF7 breast, 5.34 µM in the experiment with HL-60(TB) leukemia, 4.37 µM with SF-268 CNS and 0.923 µM in the experiment with SNB-19 CNS. In addition, the TGI is 74.5 µM in the experiment on UACC-257 melanoma; over 100 µM in the experiment with CAKI-1 renal; over 100 µM in the experiment with UO-31 renal; over 100 µM in the experiment on KM12 colon; over 100 µM in the experiment with MDA-MB-435; over 100 µM with T-47D breast. Also, the TGI in the experiment on MCF7 breast was over 100 µM; in the experiment on HL-60(TB) leukemia, over 100 µM; in the experiment with SF-268 CNS it was 98.2 µM; with SNB-19 CNS, over 100 µM.

As for `Nc1ccn([C@H]2C[C@@H](O)[C@@H](CO)S2)c(=O)n1`, the GI50 is over 100 µM in the experiment on UACC-257 melanoma; 8.4 µM in the experiment on CAKI-1 renal; 23.6 µM in the experiment with UO-31 renal; over 100 µM in the experiment with KM12 colon; 16.9 µM in the experiment on MDA-MB-435; over 100 µM with T-47D breast. Also, the GI50 is over 100 µM with MCF7 breast, 14.5 µM in the experiment with HL-60(TB) leukemia, over 100 µM in the experiment with SF-268 CNS and over 100 µM with SNB-19 CNS. Besides, the TGI in the experiment on UACC-257 melanoma, in the experiment on CAKI-1 renal, in the experiment with UO-31 renal, in the experiment with KM12 colon, in the experiment on MDA-MB-435 and in the experiment on T-47D breast was over 100 µM throughout. The TGI with MCF7 breast, in the experiment on HL-60(TB) leukemia, with SF-268 CNS and in the experiment on SNB-19 CNS was over 100 µM in each case.

Turning to `Cc1cc(S(=O)(=O)Nc2nc3ccsc3c(=O)n2Cc2ccco2)c(S)cc1Cl`, the GI50 with UACC-257 melanoma, in the experiment with CAKI-1 renal, in the experiment with UO-31 renal, with KM12 colon, in the experiment on MDA-MB-435 and in the experiment with T-47D breast was over 100 µM throughout. The GI50 in the experiment with MCF7 breast was over 100 µM; in the experiment with HL-60(TB) leukemia, 25.5 µM; in the experiment on SF-268 CNS, 99 µM; in the experiment on SNB-19 CNS, 99 µM. Besides, the concentration for total growth inhibition (TGI) in the experiment on UACC-257 melanoma, in the experiment on CAKI-1 renal, with UO-31 renal, with KM12 colon, in the experiment with MDA-MB-435 and in the experiment on T-47D breast was over 100 µM throughout. In addition, the TGI with MCF7 breast, in the experiment on HL-60(TB) leukemia, in the experiment with SF-268 CNS and in the experiment on SNB-19 CNS was over 100 µM in each case.

Take `CO[C@H]1[C@H](O)[C@H](O[C@H]2CC[C@@]3(C)[C@H](CC[C@@H]4[C@@H]3CC[C@]3(C)[C@@H](C5=CC(=O)OC5)CC[C@]43O)C2)O[C@@H](C)[C@@H]1O`: the TGI in the experiment on UACC-257 melanoma was 0.00571 µM and < 0.0137 µM; in the experiment with CAKI-1 renal, 0.00156 µM; in the experiment on UO-31 renal it was 0.00201 µM; with KM12 colon, 0.0125 µM; in the experiment on MDA-MB-435, under 0.0001 µM; in the experiment with T-47D breast, 0.0194 µM. Besides, the TGI is 0.0288 µM in the experiment on MCF7 breast; 0.00363 µM in the experiment with HL-60(TB) leukemia; 0.00183 µM and 0.0166 µM in the experiment with SF-268 CNS; 0.00324 µM in the experiment on SNB-19 CNS. The GI50 is 0.00395 µM with T-47D breast and 0.00175 µM in the experiment on HL-60(TB) leukemia.
